Data as given in article PMC12735718, “Novel Adamantane–Sclareol Hybrids Exploit ROS Vulnerability to Overcome Multidrug-Resistance in Glioblastoma Cells” (Molecules, 2025).

Key:
[1] = test system: ASK1 protein in U87-TxR cells; experiment: ASK1 protein expression by flow cytometry, U87-TxR; type: cell-based, human; conditions: 48 h; for ASK1 protein levels: 2 µM and 4 µM
Description: Flow cytometry was used to assess TrxR1 and ASK1 protein expression in the U87 and U87-TxR cell lines. Cells were seeded and allowed to attach overnight before exposure to compounds 2 and 5 at final concentrations of 2 μM and 4 μM. After 48 h treatment, cells were collected by trypsinization, rinsed with PBS, and subsequently fixed in 4% PFA for 10 min at room temperature. For permeabilization, ice-cold absolute methanol was added, and the samples were maintained at −20 °C overnight. Following this step, cells were washed in PBS and incubated for 1 h in 0.5% BSA/PBS to block nonspecific binding. Pelleted cells were then resuspended in primary antibodies diluted in 0.5% BSA/PBS [(ASK1, 1:200 (ab45178, Abcam, Cambridge, UK); TrxR1, 1:500 (ab124954, Abcam, Cambridge, UK)] and incubated overnight at +4 °C. Cells were then washed in PBS and incubated for 1 h at room temperature in the dark with fluorescently labeled anti-rabbit IgG secondary antibody (Alexa Fluor 488, ab150097, Abcam, Cambridge, UK), diluted 1:1000 in 0.5% BSA/PBS. Following incubation, samples were washed, resuspended in cold PBS, and analyzed by flow cytometry. A minimum of 10,000 events per sample were acquired, and fluorescence was detected in a green fluorescence channel (525 nm). Data acquisition and processing were performed using CytExpert software (version 2.4.0.28; Beckman Coulter, Indianapolis, IN, USA).

[2] = test system: antioxidant-related gene mRNA in U87-TxR cells; experiment: RT-qPCR of oxidative-stress-related genes, U87-TxR; type: cell-based, human; conditions: 4 µM, 24 h; for increase in GPX1 mRNA expression: relative to untreated control
Description: Prior to RNA isolation, U87 and U87-TxR cell were treated with 4 μM 2 and 5 for 24 h. TRIzol® Reagent was used to isolate total RNA according to manufacturer’s instructions. RNA concentration was determined with NanoPhotometer N60 (Implen GmbH, Munchen, Germany). Quality was determined using electrophoresis on a 1.3% agarose gel. Reverse transcription reaction was carried out using High-Capacity cDNA Reverse Transcription Kit with RNase Inhibitor.
Quantitative RT-PCR (RT-qPCR) was performed to evaluate mRNA expression levels of CAT, GSR, SOD2, GPX1, GPX4, GST, TRX1, and TRXR1, with ACTB used as the reference gene. Reactions were carried out using Maxima SYBR Green/ROX qPCR Master Mix (Thermo Fisher Scientific, Waltham, MA, USA) in the QuantStudio™ 3 Real-Time PCR System (Applied Biosystems by Thermo Fisher Scientific). Thermocycling conditions consisted of an initial incubation at 50 °C for 5 min, followed by denaturation at 95 °C for 10 min and then 40 cycles of amplification with denaturation at 95 °C for 15 s and annealing/extension at 60 °C for 60 s. Relative gene expression levels were calculated using the ΔΔCt method, normalizing target gene expression to ACTB. All reactions were performed in technical triplicates.

[3] = test system: intracellular superoxide anion in U87 and U87-TxR cells; experiment: Superoxide anion detection by DHE; type: cell-based, human; conditions: 4 µM, 24 h and 48 h
Description: (§1) The levels of ROS were measured in U87 and U87-TxR cells by flow cytometry. The production of superoxide anions was detected using DHE fluorescence dye, while production of H2O2 and peroxynitrite anions was detected using DHR fluorescence dye. Cells were seeded in 6-well plates (150,000 cell/well) and incubated overnight. The cells were then treated with compounds 2 or 5 (4 μM) for 24 h and 48 h. CDDP (10 μM) was used as a positive control. After the treatment period, the cells were stained with DHE or DHR for 30 min in the dark. Following incubation, cells were harvested with trypsinization and washed twice in cold phosphate buffer solution (PBS). Fluorescence was measured on a CytoFlex flow cytometer (Beckman Coulter, Indianapolis, IN, USA). Green fluorescence from the oxidized DHR dye was detected at 525 nm, while the red fluorescence from ethidium derived from DHE was detected at 585 nm. At least 10,000 events were assayed for each sample. The results were analyzed by CytExpert 2.4.0.28 software (Beckman Coulter, Indianapolis, IN, USA).

[4] = test system: H2O2 and peroxynitrite anion levels in U87-TxR cells; experiment: ROS detection by DHR, U87-TxR; type: cell-based, human; conditions: 4 µM, 24 h and 48 h
Description: as §1

A-172 cells = experiment: MTT cell viability assay, A-172; type: cell-based; conditions: Homo sapiens, 72 h treatment
Description: Cell viability was measured using the colorimetric MTT assay based on the reduction of MTT into formazan dye. Cell lines were seeded into 96-well cell culture plates (4000 cells/well) in appropriate medium. After overnight incubation, cells were treated with increasing concentrations of 1, 2, 3, 4, 5, and 6 (0.5, 1, 2, 4, and 8 µM). After 72 h treatment, MTT solution (4 mg/mL) was added and plates were incubated at 37 °C with 5% CO2 for 3 h. After incubation, formazan crystals were dissolved using 100 µL DMSO, resulting in a purple color. The absorbance was measured at 570 nm with a reference wavelength of 690 nm using an automated microplate reader (MultiskanSky, Thermo Scientific, USA). The IC50 values were determined by non-linear regression analysis in GraphPad Prism 8.0.2. software (GraphPad Software, Boston, MA, USA).

P-gp = test system: P-gp; set-up: method as in PMID 40939538; conditions: non-small cell lung carcinoma sensitive and MDR P-gp-overexpressing cells ref 23; cited from earlier work
P-gp (U87-TxR cells) = target: T1, P-gp (U87-TxR cells) (Homo sapiens, UniProt P08183); experiment: Rhodamine 123 accumulation assay; type: cell-based; conditions: highest concentration, 30 min
T1 construct: Studies were carried out with 2, 5, and TQ in U87-TxR cells with P-gp overexpression; endogenous in cells; host or cells: U87-TxR (paclitaxel-selected from U87)
Description: Studies were carried out with 2, 5, and TQ in U87-TxR cells with P-gp overexpression. Sensitive U87 cells were used as a positive control for Rho 123 accumulation. U87-TxR cells were seeded in 6-well plates at a density of 100,000 cells/well and incubated overnight. Then, the cells were treated with 1 μM and 2 μM of compounds 2 and 5 for 24 h, 48 h, and 72 h. Thereafter, cells were incubated with 2 μM Rho 123 for an additional 30 min at 37 °C in 5% CO2. In another experimental setting, 2 μM Rho123 was simultaneously applied with increasing concentrations of 2 or 5 (1 μM, 2 μM, and 4 μM) for 30 min. At the end of the accumulation period, the samples were washed twice, resuspended in 1 mL of cold PBS, and analyzed using a CytoFLEX flow cytometer (Beckman Coulter, Indianapolis, IN, USA). The fluorescence was read in a green fluorescence channel (525 nm). At least 10, 000 events were assayed for each sample. Data were analyzed using CytExpert 2.4.0.28 software (Beckman Coulter, Indianapolis, IN, USA).

T1 sequence (P08183 whole entry): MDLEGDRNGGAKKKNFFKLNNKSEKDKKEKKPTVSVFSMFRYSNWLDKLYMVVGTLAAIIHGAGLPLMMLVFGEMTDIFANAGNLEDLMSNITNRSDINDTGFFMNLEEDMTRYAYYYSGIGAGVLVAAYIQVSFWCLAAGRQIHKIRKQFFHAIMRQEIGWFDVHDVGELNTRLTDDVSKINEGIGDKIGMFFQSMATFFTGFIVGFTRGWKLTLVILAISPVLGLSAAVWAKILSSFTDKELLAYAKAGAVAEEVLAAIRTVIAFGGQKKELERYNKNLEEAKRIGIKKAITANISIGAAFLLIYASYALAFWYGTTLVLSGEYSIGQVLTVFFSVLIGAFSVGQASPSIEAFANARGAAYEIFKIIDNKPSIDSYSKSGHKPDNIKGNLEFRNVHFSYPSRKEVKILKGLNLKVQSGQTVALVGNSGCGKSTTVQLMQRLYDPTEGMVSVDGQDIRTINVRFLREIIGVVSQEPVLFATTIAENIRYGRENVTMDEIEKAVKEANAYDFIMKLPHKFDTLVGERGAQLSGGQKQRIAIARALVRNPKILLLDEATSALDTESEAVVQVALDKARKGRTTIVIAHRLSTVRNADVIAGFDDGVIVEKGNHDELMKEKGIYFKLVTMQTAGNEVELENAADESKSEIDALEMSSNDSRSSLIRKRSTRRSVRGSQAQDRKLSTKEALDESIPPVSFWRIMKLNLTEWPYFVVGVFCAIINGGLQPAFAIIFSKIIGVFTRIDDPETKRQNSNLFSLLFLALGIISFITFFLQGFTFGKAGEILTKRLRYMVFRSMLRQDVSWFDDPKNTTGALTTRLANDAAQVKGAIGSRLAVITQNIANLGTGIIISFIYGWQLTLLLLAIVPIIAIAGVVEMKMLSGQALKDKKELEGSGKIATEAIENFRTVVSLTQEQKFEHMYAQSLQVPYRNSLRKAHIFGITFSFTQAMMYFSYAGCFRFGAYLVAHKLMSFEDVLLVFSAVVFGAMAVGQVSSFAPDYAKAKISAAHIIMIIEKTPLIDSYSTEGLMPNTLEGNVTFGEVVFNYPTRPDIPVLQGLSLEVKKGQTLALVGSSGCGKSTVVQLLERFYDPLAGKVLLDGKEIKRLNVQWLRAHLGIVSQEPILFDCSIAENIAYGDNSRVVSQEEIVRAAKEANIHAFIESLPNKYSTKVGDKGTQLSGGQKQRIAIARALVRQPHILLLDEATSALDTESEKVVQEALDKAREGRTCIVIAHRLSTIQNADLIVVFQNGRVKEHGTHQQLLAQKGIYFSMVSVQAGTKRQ

| Compound | ASK1 protein levels [1] | CAT mRNA expression levels [2] | GSTP gene expression [2] | mRNA expression of SOD2, GSR, and GPX4 [2] | increase in GPX1 mRNA expression [2] | intracellular superoxide anion levels (DHE) [3] | DHR fluorescence (H2O2 and peroxynitrite anion levels) [4] | IC50 (A-172 cells) | P-gp interaction (P-gp) | Rho 123 accumulation vs TQ (50 nM) (P-gp (U87-TxR cells)) | ASK1 expression ([1]; 4 µM, not statistically significant) |
| --- | --- | --- | --- | --- | --- | --- | --- | --- | --- | --- | --- |
| CC1(C)CCC[C@]2(C)[C@@H](CC[C@@](C)(O)/C=C/c3ccc(CNCCCCCCCCNCC45CC6CC(CC(C6)C4)C5)s3)[C@](C)(O)CC[C@@H]12 [Compound 2] | increased | remained unchanged | significantly increased | increase | 1.9 fold | no significant changes | increase in DHR fluorescence | 2.05 ± 0.37 µM | P-gp inhibitor | comparable to TQ |  |
| CC1(C)CCC[C@]2(C)[C@@H](CC[C@@](C)(O)/C=C/c3ccc(CNCCCCCCCCNCC45CC6CC(CC(C6)C4)C5)o3)[C@](C)(O)CC[C@@H]12 [Compound 5] | increased | remained unchanged | significantly increased | increase | 1.5 fold | no significant changes | increase in DHR fluorescence | 4.74 ± 0.129 µM | P-gp substrate | comparable to TQ | slightly increased |
